No end group written: not given here.
Legend:
VEGF receptors = VEGF receptors binding assay ([125I]-VEGF competition on BAEC membranes); set-up: species or system bovine
Experimental: VEGF receptors binding and activation. a) VEGF competitive binding on BAEC. 1 μg of membrane protein was plated with QK and [^125I]-VEGF (500000 cpm, 10^−10 M). b) KDR activation. After stimulation total KDR was immunoprecipitated from a whole-cell protein extracts and phospho-tyrosine was visualized by a specific antibody, anti-rabbit HRP-conjugated secondary antibody and standard chemiluminescence. c) Flt-1 activation. After stimulation total Flt-1 was immunoprecipitated from a whole-cell protein extracts and phospho-tyrosine was visualized by specific antibody, anti-rabbit HRP-conjugated secondary antibody and standard chemiluminescence.
VEGF receptors binding assay. Cells were homogenized in lysis buffer (12.5 mM Tris pH 6.8, 5 mM EDTA, 5 mM EGTA) and membranes were separated from the cytosol fraction by centrifugation. Membranes were suspended in binding buffer (75 mM Tris, 12.5 mM MgCl2, 2 mM EDTA) and an equal amount of membrane protein (1 μg) was plated in 96 well plates with QK (10^−13 to 10^−8 M) and [^125I]-VEGF (Amersham). VEGF binding was evaluated with a y-counter.
VEGF receptors binding assay. To verify the biological behavior of QK peptide, we tested its ability to compete for the binding sites of VEGF on cell membranes (FIG. 1a). We competed membranes, obtained from isolated BAEC, with iodinated VEGF and then with increasing amount of QK.

ERK1/2 = ERK1/2 activation in BAEC (western blot); format: cell-based, bovine; details: serum deprived BAEC, 15 minutes at 37° C.
Experimental: Effect of QK and VEGF15 on ERK1/2 activation. Serum deprived BAEC were treated with QK (a) or with VEGF 15 (b) in absence or in presence of VEGF165 (100 ng/ml) for 15 minutes at 37° C. and then dissolved in RIPA-SDS buffer. Total ERK1/2 and the phosphorylated form of ERK1/2 were visualized by specific antibodies.
Western blot. Cells were plated on six-well dishes and serum starved overnight. On the next day, cells were treated with different amount of peptide in absence or in presence of VEGF165 for 15 minutes at 37° C. and then dissolved in RIPA-SDS buffer (50 mM Tris-HCl (pH 7.5), 150 mM NaCl, 1% NP-40, 0.25% deoxycholate, 9.4 mg/50 ml sodium orthovanadate, […]). In some experiments, total KDR and Flt-1 were immunoprecipitated from an equal amount of whole-cell protein extracts using protein A/G agarose beads conjugated with antibodies raised against total KDR or Flt-1 (R&D). Proteins from whole-cell extracts or immunocomplexes were resolved by PAGE and transferred to nitrocellulose. Total extracellular signal-regulated kinase 1 and 2 (ERK1/2), serine-tyrosin phosphorylated ERK1/2, phospho-tyrosine (Cell signaling) and phospho-RB (p-RB) (Santacruz) were visualized by specific antibodies, anti-rabbit HRP-conjugated secondary antibody (Santacruz) and standard chemiluminescence (Pierce).
Activation of the proliferative intracellular pathways. We then explored whether QK is able to start the pathways of endothelial cell activation. It is well established that angiogenesis modulate by VEGF is largely ERK1/2 dependent, leading to DNA synthesis and cell proliferation (7). Accordingly, we assessed the effects of QK on this kinase. […] To verify whether ERK1/2 activation to QK results in cell proliferation, we studied cell proliferation indicators such as cell number, DNA synthesis and cyclin activation.

WKY rats = assay: Ischemic hindlimb model, digital angiographies and blood flow determination; format: in vivo, rat; details: 14 days

binding to the VEGF receptor (VEGF receptors): does not bind to the receptor
Sequence: KVKFMDVYQRSYCHP (KVKFMDVYQRSYCHP-NH2) [VEGF15, natural peptide reproducing the VEGF helix 17-25, used as control peptide]
ERK1/2 activation (ERK1/2): had no effect on ERK activation
BEADS Ischemic to non ischemic (WKY rats; dyed beads dilution, muscle ratio, infusion 10^-7 M): 0.59 ± 0.15
ANGIOGRAPHY Number of TFC (WKY rats; ischemic hindlimb, chronic intrafemoral artery infusion 10^-7 M): 38 ± 2
